These results are taken from patent publication US20240173422A1, “BICYCLIC PEPTIDE LIGAND DRUG CONJUGATES” (BICYCLETX LIMITED, priority 2019, published 2024).

A short description of data set [1]: Body weight monitoring in the NCI-H292 xenograft study. The class given is in vivo, Balb/c nude mice (Mus Musculus). As to conditions: 3 mpk, iv, qw. As to the method: All the procedures related to animal handling, care and the treatment in the study were performed according to the guidelines approved by the Institutional Animal Care and Use Committee (IACUC) of WuXi AppTec, following the guidance of the Association for Assessment and Accreditation of Laboratory Animal Care (AAALAC). At the time of routine monitoring, the animals were checked for any effects of tumor growth and treatments on normal behavior such as mobility, food and water consumption (by looking only), body weight gain/loss, eye/hair matting and any other abnormal effect as stated in the protocol. Death and observed clinical signs were recorded on the basis of the numbers of animals within each subset.

In data set [2] the test system is NCI-H292 xenograft. The data set is described as follows: In vivo efficacy study in NCI-H292 xenograft in Balb/c nude mice. Particulars: 3 mpk, iv. Details: species or system Balb/c nude mice (Mus Musculus). An excerpt: In Vivo Efficacy Study of BCY8244 in Treatment of NCI-H292 Xenograft in Balb/c Nude Mice
The objective of the research is to evaluate the in vivo anti-tumor efficacy of BCY8244 in treatment of NCI-H292 xenograft in Balb/c nude mice.
• Species: Mus Musculus • Strain: Balb/c nude • Age: 6-8 weeks • Sex: female • Body weight: 18-22 g • Number of animals: 43 mice plus spare • Animal supplier: Shanghai Lingchang Biotechnology Experimental Animal Co. Ltd
The NCI-H292 tumor cells were maintained in vitro as a monolayer culture in RPMI-1640 medium supplemented with 10% heat inactivated fetal bovine serum at 37° C. in an atmosphere of 5% CO2 in air. The tumor cells were routinely subcultured twice weekly by trypsin-EDTA treatment. The cells growing in an exponential growth phase were harvested and counted for tumor inoculation.
Each mouse was inoculated subcutaneously at the right flank with NCI-H292 tumor cells (10×10^6) in 0.2 ml of PBS for tumor development. 43 animals were randomized when the average tumor volume reached 168 mm^3. The test article administration and the animal numbers in each group were shown in the experimental design table.
The major endpoint was to see if the tumor growth could be delayed or mice could be cured. Tumor volume was measured three times weekly in two dimensions using a caliper, and the volume was expressed in mm^3 using the formula: V=0.5 a×b^2 where a and b are the long and short diameters of the tumor, respectively. The tumor size was then used for calculations of T/C value. The T/C value (in percent) is an indication of antitumor effectiveness; T and C are the mean volumes of the treated and control groups, respectively, on a given day. TGI was calculated for each group using the formula: TGI (%)=[1−(Ti−T0)/(Vi−V0)]×100; Ti is the average tumor volume of a treatment group on a given day, T0 is the average tumor volume of the treatment group on the day of treatment start, Vi is the average tumor volume of the vehicle control group on the same day with Ti and V0 is the average tumor volume of the vehicle group on the day of treatment start.
Summary statistics, including mean and the standard error of the mean (SEM), were provided for the tumor volume of each group at each time point.
Statistical analysis of difference in tumor volume among the groups was conducted on the data obtained at the best therapeutic time point after the final dose.
A t-test was performed to compare tumor volume among groups, […]. All data were analyzed using GraphPad Prism 5.0. P<0.05 was considered to be statistically significant.
Tumor growth inhibition rate for test articles in the NCI-H292 xenograft model was calculated based on tumor volume measurements at day 14 after the start of treatment.

The target of data set [3] is T1, human Nectin-4 (Homo sapiens, UniProt Q96NY8).
T1 sequence (Q96NY8 32-349): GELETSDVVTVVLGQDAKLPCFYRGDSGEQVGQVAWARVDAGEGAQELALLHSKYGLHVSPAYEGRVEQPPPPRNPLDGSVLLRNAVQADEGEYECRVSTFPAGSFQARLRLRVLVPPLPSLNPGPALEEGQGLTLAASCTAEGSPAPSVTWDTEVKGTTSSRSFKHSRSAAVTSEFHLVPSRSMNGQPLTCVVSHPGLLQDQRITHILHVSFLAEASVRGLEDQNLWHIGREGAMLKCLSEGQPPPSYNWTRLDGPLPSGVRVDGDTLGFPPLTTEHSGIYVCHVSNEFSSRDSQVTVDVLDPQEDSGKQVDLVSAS
The data set is described as follows: Nectin-4 Biacore SPR binding assay.

In data set [4] the target is Human Nectin-4 (residues Gly32-Ser349; NCBI RefSeq: NP_112178.2) with C-terminal FLAG tag, biotinylated (human) (UniProt Q96NY8). The data set is described as follows: SPR (Biacore 3000), biotinylated Nectin-4 captured on streptavidin CM5 chip, peptide as analyte.
Data set [5] has the same target. The data set is described as follows: SPR binding assay, against BCY8126 as reference.

Numbered stars: 1 amine (or outer) side, 2 acyl side, 3 side chain; on linkers, the order of the positions; unused ones are H or OH. Bridge positions count the residues as written; N and C are the ends. Square brackets hold non-standard residues; d marks the D form. I, II: the chains in the order shown. * marks the point of attachment. X2 = O=C(CCOCCOCCOCCOCCOCCOCCOCCOCCOCCOCCC(=O)[*:2])[*:1]; TATA = O=C(CC[*:1])N1CN(C(=O)CC[*:2])CN(C(=O)CC[*:3])C1; Dolaproine = CO[C@@H]([C@@H]1CCCN1)[C@@H](C)C(=O)O; Dil = CC[C@H](C)[C@H](NC)[C@@H](CC(=O)O)OC; 1Nal = N[C@@H](Cc1cccc2ccccc12)C(=O)O; X3 = O=C(CCCC(=O)[*:2])NCCC(=O)[*:1]; PABC = O=C(OCc1ccc(N[*:1])cc1)[*:2]; X1 = C[C@@H](N*)[C@@H](O)c1ccccc1; Hyp = O=C(O)[C@@H]1C[C@@H](O)CN1; Cit = NC(=O)NCCC[C@H](N)C(=O)O; NMeV = CN[C@H](C(=O)O)C(C)C; Sar = CNCC(=O)O

In the case of “I: [Sar][Sar][Sar][Sar][Sar][Sar][Sar][Sar][Sar][Sar]CP[1Nal][dD]CMKDWSTP[Hyp]WC-NH2 / II: [Sar][Sar][Sar][Sar][Sar][Sar][Sar][Sar][Sar][Sar]CP[1Nal][dD]CMKDWSTP[Hyp]WC-NH2 / III: V[Cit][PABC][NMeV]V[Dil][Dolaproine]-X1 / IV: V[Cit][PABC][NMeV]V[Dil][Dolaproine]-X1 (linker I:11-I:15-I:25, II:11-II:15-II:25 via TATA; linker I:17-II:17 via X2; linker I:N-III:N, II:N-IV:N via X3; C-terminus assumed) [BCY8244]”, in data set [1], the “body weight” value was “maintained the bodyweight well”. For the same substance, the “tumor inhibitory effect” value in data set [2] (NCI-H292 xenograft, qw, 3 mg/kg) was “excellent levels of tumor inhibitory effect and regressed the tumors potently”. The “Tumor volume (mean ± SEM)” value in data set [2] (day 0 after the start of treatment, qw) is reported as 168 ± 20 mm^3; in data set [2] (day 2 after the start of treatment, qw) it was 187 ± 20 mm^3; in data set [2] (day 4 after the start of treatment, qw) it was 180 ± 48 mm^3; in data set [2] (day 7 after the start of treatment, qw) it was 155 ± 33 mm^3; in data set [2] (day 9 after the start of treatment, qw) it was 141 ± 29 mm^3; in data set [2] (day 11 after the start of treatment, qw) it was 96 ± 23 mm^3. Moreover, the “Tumor volume (mean ± SEM)” value in data set [2] (day 14, qw (Table 5)) turned out to be 108 ± 15 mm^3; in data set [2] (day 14 after the start of treatment, qw (Table 4)) it was 108 ± 15 mm^3. Also, the TGI in data set [2] (day 14, qw) is recorded as 109.0%. The substance further displayed a T/C in data set [2] (day 14, qw, treated/control mean tumor volume) of 12.8%. In addition, in data set [3], binding was put at a Kd of 425 pM. In addition, in data set [3], the “binding in the SPR binding assay” value was “good levels of binding”. Besides, the kd in data set [3] (Biacore SPR, biotinylated human Nectin-4, 25° C.) was 0.000319 s⁻¹. Moreover, the “fold greater binding activity in the SPR binding assay than monomeric BCY8126” value in data set [3] (homo-tandem versus monomer) is recorded as 3.5 fold. The kon in data set [3] (read-out: ka) came out at 750000 M⁻¹ s⁻¹.

In data set [4], BCY8126 (Nectin-4 monomer) (peptide) yielded a dissociation constant (Kd) of 1460 pM, a koff of 0.000969 s⁻¹ and a kon of 662000 M⁻¹ s⁻¹.

Regarding “BCY8244 (Nectin-4 homo-tandem), BDC of formula (A) (peptide)”, the fold greater binding activity than BCY8126 in data set [5] amounted to 3.5 fold. In data set [4], this substance returned a koff of 0.000319 s⁻¹.
